Results taken from US11523995B2, “Compositions and methods for ablating niche cells in testis and other epithelial cells and methods relating thereto” (Duke University, priority 2017, dated 2022).
“Also recorded” adds a separate entry of the source.

Columns and labels:
[1] = system: epithelial cells; assay: In vitro epithelial cell ablation in kidney, GI tract, liver and lung tissue culture; type: cell-based, mouse; details: 0.03% BC 10 min, cultured 4 days
Description: Fragments of the mouse kidney, GI tract, liver and lung were incubated with 0.03% BC for 10 min. After washing several times with PBS, tissues were placed atop 1.5% agarose blocks (214530; Difco), prepared and placed in 6 well tissue culture plates (353046; Falcon) with ˜500 μl of 10% KnockOut Serum Replacement (KSR) (Invitrogen; 10828-028)+DMEM (11995-065; Gibco) to reach halfway up the side of the block. After culture, tissues were washed in PBS and fixed for immunofluorescence. The culture incubator was supplied with 5% (vol/vol) carbon dioxide in air and maintained at 37° C.
We incubated a neonatal kidney, GI tract, liver and lung tissues in 0.03% BC solution for 10 min, washed the tissues several times with PBS and cultured for 4 days at the surface/air interface in wells atop an agarose block (FIG. 9). At the end of that time, the tissues were fixed and stained for immunofluorescence analysis using an antibody against E-CAD (Cadherin1), epithelial marker. […] Although epithelial cells were eliminated in drug treated tissues, LMN (laminin) positive basement membrane and stromal cells which is stained with PDGFRβ were maintained.

[2] = system: host spermatogenesis; assay: Donor Sertoli cell transplantation into testis 4 days post BC treatment; type: in vivo, mouse; details: 0.02% BC 4 days before Sox9-ECFP Sertoli cell transplantation; 8 weeks after transplantation
Description: On the day of transplantation, FACS analysis was used to isolate donor Sertoli cells. Testes of Sox9-CFP mouse pups were dissected. Testicular cells were enzymatically dissociated using 1 mg/ml collagenase type IV for 15 minutes followed by incubation in 0.25% trypsin and 1 mM EDTA for 10 min at 37° C. The reaction was stopped by addition of serum and cells were washed twice. The cell suspension was filtered through a 40 μm nylon mesh and resuspended in 10% FBS+DMEM.
10-15 μl of approximately 1×10^6/ml isolated Sertoli cells or 1×10^8/ml (testicular cells) were injected through the rete testis into the seminiferous tubules of a host mouse on day 4 or day 7 after ablation treatment. A glass needle was back-loaded with the cell suspension and 0.04% Trypan blue to track the efficiency of the injection.
To determine whether donor Sertoli cells can efficiently engraft drug-depleted cords, we transplanted Sertoli cells from 6.5-10.5 dpp Sox9-ECFP mouse pups. The host mouse was prepared by injection of the 0.02% BC solution 4 days prior to transplantation. Cells from a neonatal Sox9-ECFP donor testis were dissociated by enzymatic treatment, Sertoli cells were isolated by FACS, and injected into host seminiferous tubules through the rete testis (FIG. 6). […] Full spermatogenesis was detected 8 weeks after transplantation in 2 of 4 engrafted testes.

[3] = system: bladder epithelial cells, urothelium; assay: BC injection into bladder in vivo; parameters: species or system mouse
Description: 2 months old female mice were anesthetized using Avertin or Isoflurane as anesthetic. Using forceps, the top of the urethral orifice was pinched and pulled up without obstructing the urethra at a ˜45° angle. The catheter tubing end was attachded to a 1 mL syringe, and the tip of the tubing rubbed in medicine mineral jelly. The jelly-topped catheter was carefully inserted into the urethra at a ˜45° angle. The syringe was detached from the catheter, and the mouse's stomach was palpated to produce urine. Using another syringe and catheter, the urine that is produced was aspirated, and emptied into other towel. 20 uL of the BC solution (or PBS) was pipetted directly into the catheter using a pipet tip. It was ensured that the pipet tip contacted the catheter, then the cylinder was fully depressed for ˜3 seconds. The liquid was pushed into the bladder by injecting ˜20 uL of air using a syringe. The catheter was removed and the mouse put back into its cage.
We injected a solution of 0.004%, 0.06% BC into the bladder of anesthetized adult female mice to test the effects of the drug on bladder epithelial cells, urothelium. […] However, six days after treatment, urothelium had disappeared from approximately 80% of 0.06% BC treated bladder, some mesenchymal cells were found on straining with antibodies against PDGFRβ and NG2.

[4] = system: SSCs; assay: SSC kinetics after BC treatment in DND1-EGFP mouse; type: in vivo
Description: (§1) Host mice were anesthetized. A glass needle was back-loaded with the drug and 0.02% bromophenol blue to track the success of the injection and extent of delivery into the tissue. The mixture was injected into the rete-testis.
We used a DND1 (dead end homolog 1)-EGFP mouse to investigate SSC kinetics after BC treatment. In this transgenic mouse, all SSCs including undifferentiated SSCs and differentiating spermatogonia express EGFP. 0.02% BC (or PBS control) was injected into seminiferous tubules of adult testis. […] Although Sertoli cells and germ cells were lost in drug affected tubules, cord structure, Leydig cells, and PMCs were normal.

[5] = system: Sertoli cells; assay: Adult Sertoli cell depletion in vivo (injection into rete testis); parameters: species or system mouse
Description: as §1
Adult mouse testis and canine testis tissues were fixed in 4% (wt/vol) paraformaldehyde in PBS at 4° C. overnight and cryoembedded in OCT compound (Sakura Finetek). Samples were cut into 14-μm-thick cryosections. Incubation with primary antibodies was performed overnight at 4° C., followed by 2 washes, and incubation with secondary antibodies for 1 h at room temperature. Nuclei were counterstained with Hoechst 33342 dye. Samples were mounted on glass slides and imaged with a confocal laser microscope (Zeiss 780).
We injected a solution of 0.02% BC (or PBS as a control) into the rete testis of anesthetized adult male mice to test the effects of the drug on adult Sertoli cells. To detect Sertoli cells easily, we used a Sox9-ECFP transgenic mouse (FIG. 5). […] However, four days after treatment, Sertoli cells had disappeared from approximately 30-40% of seminiferous tubules.

benzalkonium chloride [BC]
LMN positive basement membrane and PDGFRβ stromal cells [1]: maintained
epithelial cell elimination (E-CAD immunofluorescence) ([1]; neonatal kidney, GI tract, liver and lung): specifically eliminated epithelial cells
engrafted testes with full spermatogenesis [2]: 2 of 4
inflammation in bladder ([3]; 0.004% BC): did not cause inflammation
urothelium depletion ([3]; 0.004% BC, day 6): urothelium depletion was not detected
macrophage invasion in bladder ([3]; 0.03% BC (so in the source)): Macrophage invasion were observed
urothelium detachment in the lumen of the bladder ([3]; 0.06% BC, day 6): urothelium detachment was observed
part of treated bladder from which urothelium had disappeared ([3]; 0.06% BC, six days after treatment): approximately 80%
SSC loss (DND1-EGFP) ([4]; 0.02% BC into seminiferous tubules, three days after Sertoli cells were depleted (7 days post BC)): SSCs had also disappeared
cord structure, Leydig cells and PMCs in drug affected tubules ([4]; 0.02% BC, 7 days post treatment): normal
Sertoli cell depletion based on SOX9 expression ([5]; 0.02% BC into rete testis, day 3): Sertoli cell depletion was not detected
seminiferous tubules from which Sertoli cells had disappeared ([5]; 0.02% BC into rete testis, four days after treatment): 30-40%
Caspase3 positive Sertoli cells (apoptosis) ([5]; 0.02% BC, 4 days after treatment): did not detect Caspase3 positive Sertoli cells
Leydig cells and endothelial cells (3βHSD, PECAM1) ([5]; 0.02% BC, day 4): not obviously affected
PMCs (SMA staining) ([5]; 0.02% BC, day 4): PMCs were intact
SSCs in drug affected tubules (STRA8, Hu C/D, c-KIT) ([5]; 0.02% BC, day 4): some SSCs were found along the basal lamina
basic tubular structure (anti-Laminin staining) ([5]; 0.02% BC, day 4): basic tubular structure was also intact
macrophage invasion and proliferation (F4/80) ([5]; 0.02% BC, day 4): many macrophages positive for F4/80 surrounded the affected tubules and some had invaded inside
Sertoli cell elimination (summary) ([5]; 4 days after 0.02% BC treatment): Sertoli cells were eliminated
system-wide / side effects after drug injection into rete testis ([5]; mouse, BC injection): no apparent system-wide effects; also recorded: no discernable side effects
